Measured values taken from US20080312301A1, “Substituted N-Benzo[D]Isoxazol-3-Yl-Amine Compounds as Inhibitors of Mglur5, Serotonin (5-Ht) and Noradrenaline Receptors, and Uses Thereof” (Gruenenthal GmbH, priority 2005, published 2008).

Target: T1, mGluR5 receptor (Sus scrofa, UniProt I3LUI7)
T1 construct: 450 μg of protein from brain homogenate are incubated with 5 nM^3[H]-MPEP; from tissue; host or cells: pig brain hemispheres without medulla, cerebellum and pons
Assay: Affinity for the mGluR5 receptor: displacement of 3[H]-MPEP binding in pig brain homogenate
Conditions: 10 μM compound, 5 nM 3[H]-MPEP
Experimental: II. Method for Determining the Affinity for the mGluR5 Receptor
In each case 450 μg of protein from brain homogenate are incubated with 5 nM^3[H]-MPEP (Tocris, order No. R1212) (MPEP=2-methyl-6-[…]) and the compounds to be investigated (10 μM in the assay) in buffer (as above) in 250 μl incubation mixtures in 96-well microtiter plates at room temperature for 60 min.
The filter plates were then dried at 55° C. for 60 min.

T1 sequence (I3LUI7 19-1212): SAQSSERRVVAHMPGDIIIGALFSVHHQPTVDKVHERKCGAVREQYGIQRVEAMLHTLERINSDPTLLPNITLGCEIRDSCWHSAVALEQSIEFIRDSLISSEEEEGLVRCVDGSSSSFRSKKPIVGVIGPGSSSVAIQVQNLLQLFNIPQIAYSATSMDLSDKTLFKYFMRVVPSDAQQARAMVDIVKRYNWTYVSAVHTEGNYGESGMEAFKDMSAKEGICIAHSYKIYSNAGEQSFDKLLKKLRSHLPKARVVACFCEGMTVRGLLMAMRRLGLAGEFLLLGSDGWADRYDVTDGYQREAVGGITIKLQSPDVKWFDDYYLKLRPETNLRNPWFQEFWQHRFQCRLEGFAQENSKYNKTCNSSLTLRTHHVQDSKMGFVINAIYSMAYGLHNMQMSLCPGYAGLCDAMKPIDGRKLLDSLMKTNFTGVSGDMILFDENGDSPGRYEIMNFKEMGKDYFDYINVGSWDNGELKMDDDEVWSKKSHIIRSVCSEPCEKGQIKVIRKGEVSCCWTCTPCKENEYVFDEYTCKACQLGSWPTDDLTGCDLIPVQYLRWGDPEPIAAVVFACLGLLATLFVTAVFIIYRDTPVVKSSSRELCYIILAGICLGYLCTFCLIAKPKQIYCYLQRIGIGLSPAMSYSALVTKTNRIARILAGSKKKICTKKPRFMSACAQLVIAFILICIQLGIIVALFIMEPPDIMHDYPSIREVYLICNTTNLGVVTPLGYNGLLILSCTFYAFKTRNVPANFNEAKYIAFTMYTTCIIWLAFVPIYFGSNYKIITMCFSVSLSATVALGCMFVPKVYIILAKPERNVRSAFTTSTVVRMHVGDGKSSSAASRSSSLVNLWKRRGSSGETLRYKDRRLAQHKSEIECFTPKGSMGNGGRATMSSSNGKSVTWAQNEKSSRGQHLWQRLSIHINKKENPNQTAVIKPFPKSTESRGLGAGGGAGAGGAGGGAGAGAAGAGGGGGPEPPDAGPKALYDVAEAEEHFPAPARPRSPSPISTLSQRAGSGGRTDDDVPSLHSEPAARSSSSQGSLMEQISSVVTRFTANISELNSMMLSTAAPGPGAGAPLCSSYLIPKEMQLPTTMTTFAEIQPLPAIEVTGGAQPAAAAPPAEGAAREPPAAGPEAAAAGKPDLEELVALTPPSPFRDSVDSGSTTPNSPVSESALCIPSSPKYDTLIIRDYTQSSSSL

Row | inhibition at 10 µM [%] | mGluR5 receptor inhibition of the 3[H]-MPEP binding in % (10 μM) [%] | SMILES
1 | 34.7 | – | O=C(Nc1noc2cc(Cl)ccc12)c1ccccc1Cl [Example 108, 2-chloro-N-(6-chlorobenzo[d]isoxazol-3-yl)benzamide]
2 | 35.2 | – | CC(C)(C)c1ccc(C(=O)Nc2noc3cc(Cl)ccc23)cc1 [Example 109, 4-tert-butyl-N-(6-chlorobenzo[d]isoxazol-3-yl)benzamide]
3 | 36 | – | O=C(Nc1noc2cc(Cl)ccc12)c1ccc(F)cc1C(F)(F)F [Example 110, N-(6-chlorobenzo[d]isoxazol-3-yl)-4-fluoro-2-trifluoromethylbenzamide]
4 | 43 | – | O=C(Nc1noc2cc(Cl)ccc12)c1cc(F)c(Cl)cc1Cl [Example 111, 2,4-dichloro-N-(6-chlorobenzo[d]isoxazol-3-yl)-5-fluorobenzamide]
5 | 35.1 | – | CCCCC(CC)C(=O)Nc1noc2cc(Cl)ccc12 (stereo not drawn) [Example 112, N-(6-chlorobenzo[d]isoxazol-3-yl)-2-ethylhexanamide]
6 | 49.2 | – | CCC(C)C(=O)Nc1noc2cc(Cl)ccc12 (stereo not drawn) [Example 113, N-(6-chlorobenzo[d]isoxazol-3-yl)-2-methylbutyramide]
7 | 37.5 | – | O=C(Nc1noc2cc(Br)ccc12)c1ccccc1Cl [Example 114, N-(6-bromobenzo[d]isoxazol-3-yl)-2-chlorobenzamide]
8 | 35.8 | – | O=C(Nc1noc2cc(Br)ccc12)c1ccc(Cl)c(Cl)c1 [Example 115, N-(6-bromobenzo[d]isoxazol-3-yl)-3,4-dichlorobenzamide]
9 | – | 37.71 | O=C(Nc1noc2cc(Br)ccc12)c1cccs1 [Example 116, thiophene-2-(6-bromobenzo[d]isoxazol-3-yl)carboxamide]
10 | 30.8 | – | CC(C)(C)CC(=O)Nc1noc2cc(Br)ccc12 [Example 117, N-(6-bromobenzo[d]isoxazol-3-yl)-3,3-dimethylbutyramide]
11 | 69 | – | Cc1ccc2onc(NC(=O)c3ccccc3)c2c1 [Example 118, N-(5-methylbenzo[d]isoxazol-3-yl)benzamide]
12 | 37.9 | – | Cc1ccc2onc(NC(=O)c3ccc(Br)cc3)c2c1 [Example 119, 4-bromo-N-(5-methylbenzo[d]isoxazol-3-yl)benzamide]
13 | 47.9 | – | Cc1ccc2onc(NC(=O)c3ccccc3Cl)c2c1 [Example 120, 2-chloro-N-(5-methylbenzo[d]isoxazol-3-yl)benzamide]
14 | 32.2 | – | Cc1ccc2onc(NC(=O)c3ccc(F)cc3)c2c1 [Example 121, 4-fluoro-N-(5-methylbenzo[d]isoxazol-3-yl)benzamide]
15 | 41 | – | Cc1ccc2onc(NC(=O)c3ccccc3F)c2c1 [Example 122, 2-fluoro-N-(5-methylbenzo[d]isoxazol-3-yl)benzamide]
16 | – | 89.70 | Cc1cccc(C(=O)Nc2noc3ccc(C)cc23)c1 [Example 123, 3-methyl-N-(5-methylbenzo[d]isoxazol-3-yl)benzamide]
17 | 43.5 | – | Cc1ccc2onc(NC(=O)c3ccc(C(C)(C)C)cc3)c2c1 [Example 124, 4-tert-butyl-N-(5-methylbenzo[d]isoxazol-3-yl)benzamide]
18 | 40.6 | – | Cc1ccc2onc(NC(=O)c3ccccc3C)c2c1 [Example 125, 2-methyl-N-(5-methylbenzo[d]isoxazol-3-yl)benzamide]
19 | 39.5 | – | Cc1ccc2onc(NC(=O)c3cccc(F)c3F)c2c1 [Example 126, 2,3-difluoro-N-(5-methylbenzo[d]isoxazol-3-yl)benzamide]
20 | 43.2 | – | Cc1ccc2onc(NC(=O)c3ccc(F)cc3F)c2c1 [Example 127, 2,4-difluoro-N-(5-methylbenzo[d]isoxazol-3-yl)benzamide]
21 | 33.1 | – | Cc1ccc2onc(NC(=O)c3cccnc3Cl)c2c1 [Example 128, 2-chloro-N-(5-methylbenzo[d]isoxazol-3-yl)nicotinamide]
22 | – | 31.64 | CC(C)(C)CC(=O)Nc1noc2ccc(F)cc12 [Example 130, N-(5-fluorobenzo[d]isoxazol-3-yl)-3,3-dimethyl butyramide]
23 | – | 42.52 | O=C(Nc1noc2ccc(F)cc12)c1ccc(F)cc1F [Example 131, 2,4-difluoro-N-(5-fluorobenzo[d]isoxazol-3-yl)benzamide]
24 | – | 36.88 | Cc1cc(C(=O)Nc2noc3ccc(F)cc23)c(C)o1 [Example 132, 2,5-dimethylfuran-3-(5-fluorobenzo[d]isoxazol-3-yl)carboxamide]
25 | 34.6 | – | O=C(Nc1noc2ccc(Br)cc12)c1cccc(F)c1F [Example 133, N-(5-bromobenzo[d]isoxazol-3-yl)-2,3-difluorobenzamide]
26 | – | 43.11 | Cc1cc(C(=O)Nc2noc3ccc(Br)cc23)c(C)o1 [Example 134, 2,5-dimethylfuran-3-(5-bromobenzo[d]isoxazol-3-yl)carboxamide]

Row | inhibition at 10 µM [%] | mGluR5 receptor inhibition of the 3[H]-MPEP binding in % (10 μM) [%] | SMILES
27 | – | 40.00 | CCC(C)C(=O)Nc1noc2ccc(Br)cc12 (stereo not drawn) [Example 135, N-(5-bromobenzo[d]isoxazol-3-yl)-2-methyl butyramide]
28 | 40.8 | – | O=C(Nc1noc2ccc(Br)cc12)c1c(F)cccc1F [Example 136, N-(5-bromobenzo[d]isoxazol-3-yl)-2,6-difluorobenzamide]
29 | 31.2 | – | COc1ccc(C(=O)Nc2noc3ccc(Br)cc23)cc1OC [Example 137, N-(5-bromobenzo[d]isoxazol-3-yl)-3,4-dimethoxybenzamide]
30 | 32 | – | Cc1ccc(C(=O)Nc2noc3ccc(Br)cc23)cc1 [Example 138, N-(5-bromobenzo[d]isoxazol-3-yl)-4-methylbenzamide]
31 | 41.5 | – | COc1cccc(OC)c1C(=O)Nc1noc2ccc(Br)cc12 [Example 139, N-(5-bromobenzo[d]isoxazol-3-yl)-2,6-dimethoxybenzamide]
32 | 38.4 | – | O=C(Nc1noc2ccc(Br)cc12)c1ccccc1Br [Example 140, 2-bromo-N-(5-bromobenzo[d]isoxazol-3-yl)benzamide]
33 | 33.1 | – | O=C(Nc1noc2ccc(Br)cc12)c1cc(F)ccc1C(F)(F)F [Example 141, N-(5-bromobenzo[d]isoxazol-3-yl)-5-fluoro-2-trifluoromethylbenzamide]
34 | 37.8 | – | COc1cccc(C(=O)Nc2noc3ccc(Br)cc23)c1 [Example 142, N-(5-bromobenzo[d]isoxazol-3-yl)-3-methoxybenzamide]
35 | – | 44.66 | Cc1cccc(C(=O)Nc2noc3ccc(C)cc23)c1 [Example 143, 3-methyl-N-(5-methylbenzo[d]isoxazol-3-yl)benzamide]
36 | 48.8 | – | Cc1ccc2onc(NC(=O)c3ccc(C#N)cc3)c2c1 [Example 144, 4-cyano-N-(5-methylbenzo[d]isoxazol-3-yl)benzamide]
37 | 43.5 | – | CCC(C(=O)Nc1noc2ccc(C)cc12)c1ccccc1 (stereo not drawn) [Example 145, N-(5-methylbenzo[d]isoxazol-3-yl)-2-phenylbutyramide]
38 | 34 | – | CCCC(C)C(=O)Nc1noc2ccc(C)cc12 (stereo not drawn) [Example 146, N-(5-methylbenzo[d]isoxazol-3-yl)-2-methylpentanamide]
39 | 31.4 | – | O=C(Nc1noc2cccc(F)c12)c1ccccc1 [Example 147, N-(4-fluorobenzo[d]isoxazol-3-yl)benzamide]
40 | 79.5 | – | O=C(Nc1noc2cccc(F)c12)c1ccc(Cl)cc1 [Example 148, 4-chloro-N-(4-fluorobenzo[d]isoxazol-3-yl)benzamide]
41 | 32.5 | – | O=C(Nc1noc2cccc(F)c12)c1ccccc1F [Example 149, 2-fluoro-N-(4-fluorobenzo[d]isoxazol-3-yl)benzamide]
42 | – | 53.18 | O=C(Nc1noc2cccc(F)c12)C12CC3CC(CC(C3)C1)C2 [Example 150, adamantane-1-(4-fluorobenzo[d]isoxazol-3-yl)carboxamide]
43 | – | 74.05 | O=C(Nc1noc2cccc(Cl)c12)C12CC3CC(CC(C3)C1)C2 [Example 151, adamantane-1-(4-chlorobenzo[d]isoxazol-3-yl)carboxamide]
44 | 31.6 | – | O=C(Nc1noc2cccc(Cl)c12)c1ccccc1 [Example 152, N-(4-chlorobenzo[d]isoxazol-3-yl)benzamide]
45 | 63.8 | – | Cc1cccc(C(=O)Nc2noc3cccc(Cl)c23)c1 [Example 153, N-(4-chlorobenzo[d]isoxazol-3-yl)-3-methylbenzamide]
46 | 30 | – | CCC(C)C(=O)Nc1noc2cccc(Cl)c12 (stereo not drawn) [Example 154, N-(4-chlorobenzo[d]isoxazol-3-yl)-2-methylbutyramide]
47 | 52.4 | – | CC(C)(C)CC(=O)Nc1noc2cccc(Cl)c12 [Example 155, N-(4-chlorobenzo[d]isoxazol-3-yl)-3,3-dimethylbutyramide]
48 | 33.8 | – | COc1cccc2onc(NC(=O)c3ccccc3C)c12 [Example 156, N-(4-methoxybenzo[d]isoxazol-3-yl)-2-methylbenzamide]
49 | 32.4 | – | COc1cccc2onc(NC(=O)c3ccccc3Cl)c12 [Example 157, 2-chloro-N-(4-methoxybenzo[d]isoxazol-3-yl)benzamide]
50 | 36.1 | – | COc1cccc2onc(NC(=O)c3ccccc3C(F)(F)F)c12 [Example 158, N-(4-methoxybenzo[d]isoxazol-3-yl)-2-trifluoromethylbenzamide]
51 | 43.2 | – | CCCCC(CC)C(=O)Nc1noc2cccc(OC)c12 (stereo not drawn) [Example 159, N-(4-methoxybenzo[d]isoxazol-3-yl)-2-ethylhexanamide]
